In patent US12479847B2 (DANA-FARBER CANCER INSTITUTE, INC., priority 2019, dated 2025):
Read-outs that look alike come from different tables or passages of the source.

Key:
Test in all cases: KINOMEscan (ScanMAX) kinase profiling
Format in all cases: binding
panel of 468 kinases [1] = molecular target: T1, panel of 468 kinases (Homo sapiens, UniProt Q92772); conditions: CDKL2; 1 μM; read-out: % control
T1 construct: purchased KINOMEscan (ScanMAX) service
T1 sequence (Q92772 1-493): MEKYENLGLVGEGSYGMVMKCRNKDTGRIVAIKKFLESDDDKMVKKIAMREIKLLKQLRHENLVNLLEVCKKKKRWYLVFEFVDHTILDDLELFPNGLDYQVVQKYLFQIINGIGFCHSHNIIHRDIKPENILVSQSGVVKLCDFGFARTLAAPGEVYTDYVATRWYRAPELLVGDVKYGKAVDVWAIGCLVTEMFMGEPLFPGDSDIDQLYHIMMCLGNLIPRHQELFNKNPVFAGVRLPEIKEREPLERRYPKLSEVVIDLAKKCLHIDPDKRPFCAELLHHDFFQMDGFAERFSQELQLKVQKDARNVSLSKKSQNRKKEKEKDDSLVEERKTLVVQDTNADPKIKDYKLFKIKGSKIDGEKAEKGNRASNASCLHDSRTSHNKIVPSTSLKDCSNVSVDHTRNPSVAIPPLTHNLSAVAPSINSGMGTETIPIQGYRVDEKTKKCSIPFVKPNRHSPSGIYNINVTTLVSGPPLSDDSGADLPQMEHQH

panel of 468 kinases [2] = molecular target: T2, panel of 468 kinases (Homo sapiens, UniProt Q9H093); conditions: SNARK; 1 μM; read-out: % control
T2 construct: purchased KINOMEscan (ScanMAX) service
T2 sequence (Q9H093 1-628): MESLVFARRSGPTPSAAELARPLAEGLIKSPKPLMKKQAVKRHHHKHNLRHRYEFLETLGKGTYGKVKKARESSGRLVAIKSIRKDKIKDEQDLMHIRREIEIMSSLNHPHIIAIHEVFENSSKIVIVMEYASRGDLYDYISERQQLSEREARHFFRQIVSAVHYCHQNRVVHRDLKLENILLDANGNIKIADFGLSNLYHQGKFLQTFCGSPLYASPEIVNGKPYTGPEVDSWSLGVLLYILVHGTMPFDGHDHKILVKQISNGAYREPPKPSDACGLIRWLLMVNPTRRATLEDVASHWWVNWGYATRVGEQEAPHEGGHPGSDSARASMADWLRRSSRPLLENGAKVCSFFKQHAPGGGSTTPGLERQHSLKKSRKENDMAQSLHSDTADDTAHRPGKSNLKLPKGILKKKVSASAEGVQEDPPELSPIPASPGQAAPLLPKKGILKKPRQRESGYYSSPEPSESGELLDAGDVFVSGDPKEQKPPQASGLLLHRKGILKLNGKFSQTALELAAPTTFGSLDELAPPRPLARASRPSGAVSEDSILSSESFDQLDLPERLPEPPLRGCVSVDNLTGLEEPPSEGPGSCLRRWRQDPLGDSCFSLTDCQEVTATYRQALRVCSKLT

panel of 468 kinases [3] = molecular target: T3, panel of 468 kinases (Homo sapiens, UniProt Q9H4A3); conditions: WNK1; 1 μM; read-out: % control
T3 construct: purchased KINOMEscan (ScanMAX) service
T3 sequence (Q9H4A3 whole entry): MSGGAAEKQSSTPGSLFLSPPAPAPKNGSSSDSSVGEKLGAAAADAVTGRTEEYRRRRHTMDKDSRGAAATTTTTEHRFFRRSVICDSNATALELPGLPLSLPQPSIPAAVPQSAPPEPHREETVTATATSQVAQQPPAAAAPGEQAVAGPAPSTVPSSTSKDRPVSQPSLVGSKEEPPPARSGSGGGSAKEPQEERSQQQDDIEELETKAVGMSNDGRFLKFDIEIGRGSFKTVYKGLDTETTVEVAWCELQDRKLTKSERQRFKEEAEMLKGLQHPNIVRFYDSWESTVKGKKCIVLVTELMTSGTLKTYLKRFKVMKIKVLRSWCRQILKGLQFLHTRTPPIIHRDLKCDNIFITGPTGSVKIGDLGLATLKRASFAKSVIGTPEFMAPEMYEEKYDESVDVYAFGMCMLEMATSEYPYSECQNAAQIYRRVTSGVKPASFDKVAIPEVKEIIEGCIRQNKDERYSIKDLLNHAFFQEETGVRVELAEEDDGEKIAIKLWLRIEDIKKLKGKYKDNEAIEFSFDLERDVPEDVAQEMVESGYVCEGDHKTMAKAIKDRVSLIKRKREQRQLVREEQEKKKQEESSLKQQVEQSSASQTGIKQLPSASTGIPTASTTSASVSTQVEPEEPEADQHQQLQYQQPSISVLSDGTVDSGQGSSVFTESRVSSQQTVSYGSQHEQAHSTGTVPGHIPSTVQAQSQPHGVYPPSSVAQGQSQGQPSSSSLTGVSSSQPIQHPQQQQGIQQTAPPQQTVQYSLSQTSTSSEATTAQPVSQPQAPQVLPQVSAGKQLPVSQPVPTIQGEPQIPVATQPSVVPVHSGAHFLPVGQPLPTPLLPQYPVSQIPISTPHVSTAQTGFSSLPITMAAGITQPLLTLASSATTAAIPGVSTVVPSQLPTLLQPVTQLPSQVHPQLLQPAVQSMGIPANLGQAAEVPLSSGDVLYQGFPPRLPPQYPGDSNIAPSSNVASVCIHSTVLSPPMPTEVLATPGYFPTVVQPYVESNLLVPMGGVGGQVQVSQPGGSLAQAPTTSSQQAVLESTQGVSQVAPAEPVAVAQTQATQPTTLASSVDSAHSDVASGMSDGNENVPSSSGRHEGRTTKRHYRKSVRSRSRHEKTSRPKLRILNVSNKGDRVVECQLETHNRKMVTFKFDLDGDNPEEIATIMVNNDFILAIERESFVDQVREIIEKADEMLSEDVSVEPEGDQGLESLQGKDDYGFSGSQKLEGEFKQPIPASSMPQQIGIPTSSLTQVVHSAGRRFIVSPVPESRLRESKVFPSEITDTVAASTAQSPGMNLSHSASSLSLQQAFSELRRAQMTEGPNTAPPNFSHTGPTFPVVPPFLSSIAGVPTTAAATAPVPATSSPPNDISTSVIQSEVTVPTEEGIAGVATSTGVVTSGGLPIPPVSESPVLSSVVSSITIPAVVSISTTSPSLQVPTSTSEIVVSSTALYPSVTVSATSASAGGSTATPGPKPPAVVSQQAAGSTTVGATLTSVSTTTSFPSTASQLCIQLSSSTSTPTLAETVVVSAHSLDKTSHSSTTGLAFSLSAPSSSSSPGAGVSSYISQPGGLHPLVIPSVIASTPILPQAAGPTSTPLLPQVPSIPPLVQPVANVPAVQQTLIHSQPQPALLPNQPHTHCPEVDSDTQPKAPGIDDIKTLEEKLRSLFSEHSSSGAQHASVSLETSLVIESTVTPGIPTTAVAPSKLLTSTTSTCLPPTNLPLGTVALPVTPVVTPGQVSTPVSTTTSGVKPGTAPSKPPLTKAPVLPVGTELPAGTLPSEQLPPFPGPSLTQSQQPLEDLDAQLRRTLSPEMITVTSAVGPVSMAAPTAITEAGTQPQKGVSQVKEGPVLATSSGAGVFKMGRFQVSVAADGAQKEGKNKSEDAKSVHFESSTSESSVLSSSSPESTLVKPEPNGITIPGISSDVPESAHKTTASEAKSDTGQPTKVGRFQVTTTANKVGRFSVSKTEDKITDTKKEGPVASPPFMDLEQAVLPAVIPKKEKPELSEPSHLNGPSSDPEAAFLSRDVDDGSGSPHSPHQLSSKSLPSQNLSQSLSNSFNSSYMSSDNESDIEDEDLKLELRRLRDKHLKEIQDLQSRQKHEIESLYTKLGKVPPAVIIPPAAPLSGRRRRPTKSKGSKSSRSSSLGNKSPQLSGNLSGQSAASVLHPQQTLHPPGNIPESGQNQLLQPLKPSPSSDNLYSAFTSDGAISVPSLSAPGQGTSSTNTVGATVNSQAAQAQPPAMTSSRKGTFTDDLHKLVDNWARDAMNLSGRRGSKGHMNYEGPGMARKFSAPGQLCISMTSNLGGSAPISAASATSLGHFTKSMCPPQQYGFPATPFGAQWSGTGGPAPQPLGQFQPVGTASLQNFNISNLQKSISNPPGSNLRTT

panel of 468 kinases [4] = molecular target: T4, panel of 468 kinases (Homo sapiens, UniProt Q9H1R3); conditions: MYLK2; 1 μM; read-out: % control
T4 construct: purchased KINOMEscan (ScanMAX) service
T4 sequence (Q9H1R3 whole entry): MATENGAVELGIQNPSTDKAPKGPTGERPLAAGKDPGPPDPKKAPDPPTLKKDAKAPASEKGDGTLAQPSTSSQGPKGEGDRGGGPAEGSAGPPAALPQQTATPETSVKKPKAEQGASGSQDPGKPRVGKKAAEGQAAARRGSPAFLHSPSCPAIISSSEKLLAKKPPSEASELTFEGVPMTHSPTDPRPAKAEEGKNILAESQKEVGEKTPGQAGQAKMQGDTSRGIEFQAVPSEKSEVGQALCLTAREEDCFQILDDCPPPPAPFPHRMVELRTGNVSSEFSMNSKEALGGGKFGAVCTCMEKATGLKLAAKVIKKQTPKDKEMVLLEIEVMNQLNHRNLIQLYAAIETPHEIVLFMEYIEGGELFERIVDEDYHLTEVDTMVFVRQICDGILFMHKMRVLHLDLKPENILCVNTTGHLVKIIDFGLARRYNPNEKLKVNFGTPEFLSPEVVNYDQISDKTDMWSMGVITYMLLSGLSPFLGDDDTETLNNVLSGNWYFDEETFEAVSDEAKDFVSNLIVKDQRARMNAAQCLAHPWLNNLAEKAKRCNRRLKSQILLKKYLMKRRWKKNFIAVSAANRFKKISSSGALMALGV

panel of 468 kinases [5] = molecular target: T5, panel of 468 kinases (Homo sapiens, UniProt Q92918); conditions: HPK1; 1 μM; read-out: % control
T5 construct: purchased KINOMEscan (ScanMAX) service

panel of 468 kinases [6] = molecular target: T6, panel of 468 kinases (Homo sapiens, UniProt Q9UQB9); conditions: AURKC; 1 μM; read-out: % control
T6 construct: purchased KINOMEscan (ScanMAX) service
T6 sequence (Q9UQB9 1-309): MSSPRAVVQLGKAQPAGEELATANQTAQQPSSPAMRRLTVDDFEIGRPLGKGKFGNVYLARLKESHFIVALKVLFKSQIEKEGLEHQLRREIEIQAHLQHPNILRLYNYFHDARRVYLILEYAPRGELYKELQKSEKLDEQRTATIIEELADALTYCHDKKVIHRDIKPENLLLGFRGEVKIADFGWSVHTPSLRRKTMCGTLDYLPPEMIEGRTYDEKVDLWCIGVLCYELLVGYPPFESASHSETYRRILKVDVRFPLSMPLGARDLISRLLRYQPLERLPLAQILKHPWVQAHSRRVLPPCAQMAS

panel of 468 kinases [7] = molecular target: T7, panel of 468 kinases (Homo sapiens, UniProt Q96BR1); conditions: SGK3; 1 μM; read-out: % control
T7 construct: purchased KINOMEscan (ScanMAX) service
T7 sequence (Q96BR1 1-496): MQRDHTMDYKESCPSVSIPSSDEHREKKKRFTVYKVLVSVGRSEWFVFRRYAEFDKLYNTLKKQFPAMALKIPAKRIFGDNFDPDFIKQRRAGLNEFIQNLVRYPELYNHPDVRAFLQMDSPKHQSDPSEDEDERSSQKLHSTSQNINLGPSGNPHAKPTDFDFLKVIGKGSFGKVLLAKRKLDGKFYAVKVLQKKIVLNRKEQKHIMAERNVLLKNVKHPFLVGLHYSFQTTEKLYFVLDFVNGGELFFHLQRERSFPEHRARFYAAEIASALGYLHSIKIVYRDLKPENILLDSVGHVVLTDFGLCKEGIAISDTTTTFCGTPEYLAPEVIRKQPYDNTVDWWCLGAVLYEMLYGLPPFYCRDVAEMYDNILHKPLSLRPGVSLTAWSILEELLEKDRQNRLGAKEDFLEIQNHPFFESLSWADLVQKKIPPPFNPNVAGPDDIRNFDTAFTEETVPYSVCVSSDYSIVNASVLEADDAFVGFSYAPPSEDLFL

panel of 468 kinases [8] = molecular target: T8, panel of 468 kinases (Homo sapiens, UniProt O60674); conditions: JAK2(JH1domain-catalytic); 1 μM; read-out: % control
T8 construct: purchased KINOMEscan (ScanMAX) service

panel of 468 kinases [9] = molecular target: T9, panel of 468 kinases (Homo sapiens, UniProt Q9Y2I7); conditions: PIKFYVE; 1 μM; read-out: % control
T9 construct: purchased KINOMEscan (ScanMAX) service
T9 sequence (Q9Y2I7 whole entry): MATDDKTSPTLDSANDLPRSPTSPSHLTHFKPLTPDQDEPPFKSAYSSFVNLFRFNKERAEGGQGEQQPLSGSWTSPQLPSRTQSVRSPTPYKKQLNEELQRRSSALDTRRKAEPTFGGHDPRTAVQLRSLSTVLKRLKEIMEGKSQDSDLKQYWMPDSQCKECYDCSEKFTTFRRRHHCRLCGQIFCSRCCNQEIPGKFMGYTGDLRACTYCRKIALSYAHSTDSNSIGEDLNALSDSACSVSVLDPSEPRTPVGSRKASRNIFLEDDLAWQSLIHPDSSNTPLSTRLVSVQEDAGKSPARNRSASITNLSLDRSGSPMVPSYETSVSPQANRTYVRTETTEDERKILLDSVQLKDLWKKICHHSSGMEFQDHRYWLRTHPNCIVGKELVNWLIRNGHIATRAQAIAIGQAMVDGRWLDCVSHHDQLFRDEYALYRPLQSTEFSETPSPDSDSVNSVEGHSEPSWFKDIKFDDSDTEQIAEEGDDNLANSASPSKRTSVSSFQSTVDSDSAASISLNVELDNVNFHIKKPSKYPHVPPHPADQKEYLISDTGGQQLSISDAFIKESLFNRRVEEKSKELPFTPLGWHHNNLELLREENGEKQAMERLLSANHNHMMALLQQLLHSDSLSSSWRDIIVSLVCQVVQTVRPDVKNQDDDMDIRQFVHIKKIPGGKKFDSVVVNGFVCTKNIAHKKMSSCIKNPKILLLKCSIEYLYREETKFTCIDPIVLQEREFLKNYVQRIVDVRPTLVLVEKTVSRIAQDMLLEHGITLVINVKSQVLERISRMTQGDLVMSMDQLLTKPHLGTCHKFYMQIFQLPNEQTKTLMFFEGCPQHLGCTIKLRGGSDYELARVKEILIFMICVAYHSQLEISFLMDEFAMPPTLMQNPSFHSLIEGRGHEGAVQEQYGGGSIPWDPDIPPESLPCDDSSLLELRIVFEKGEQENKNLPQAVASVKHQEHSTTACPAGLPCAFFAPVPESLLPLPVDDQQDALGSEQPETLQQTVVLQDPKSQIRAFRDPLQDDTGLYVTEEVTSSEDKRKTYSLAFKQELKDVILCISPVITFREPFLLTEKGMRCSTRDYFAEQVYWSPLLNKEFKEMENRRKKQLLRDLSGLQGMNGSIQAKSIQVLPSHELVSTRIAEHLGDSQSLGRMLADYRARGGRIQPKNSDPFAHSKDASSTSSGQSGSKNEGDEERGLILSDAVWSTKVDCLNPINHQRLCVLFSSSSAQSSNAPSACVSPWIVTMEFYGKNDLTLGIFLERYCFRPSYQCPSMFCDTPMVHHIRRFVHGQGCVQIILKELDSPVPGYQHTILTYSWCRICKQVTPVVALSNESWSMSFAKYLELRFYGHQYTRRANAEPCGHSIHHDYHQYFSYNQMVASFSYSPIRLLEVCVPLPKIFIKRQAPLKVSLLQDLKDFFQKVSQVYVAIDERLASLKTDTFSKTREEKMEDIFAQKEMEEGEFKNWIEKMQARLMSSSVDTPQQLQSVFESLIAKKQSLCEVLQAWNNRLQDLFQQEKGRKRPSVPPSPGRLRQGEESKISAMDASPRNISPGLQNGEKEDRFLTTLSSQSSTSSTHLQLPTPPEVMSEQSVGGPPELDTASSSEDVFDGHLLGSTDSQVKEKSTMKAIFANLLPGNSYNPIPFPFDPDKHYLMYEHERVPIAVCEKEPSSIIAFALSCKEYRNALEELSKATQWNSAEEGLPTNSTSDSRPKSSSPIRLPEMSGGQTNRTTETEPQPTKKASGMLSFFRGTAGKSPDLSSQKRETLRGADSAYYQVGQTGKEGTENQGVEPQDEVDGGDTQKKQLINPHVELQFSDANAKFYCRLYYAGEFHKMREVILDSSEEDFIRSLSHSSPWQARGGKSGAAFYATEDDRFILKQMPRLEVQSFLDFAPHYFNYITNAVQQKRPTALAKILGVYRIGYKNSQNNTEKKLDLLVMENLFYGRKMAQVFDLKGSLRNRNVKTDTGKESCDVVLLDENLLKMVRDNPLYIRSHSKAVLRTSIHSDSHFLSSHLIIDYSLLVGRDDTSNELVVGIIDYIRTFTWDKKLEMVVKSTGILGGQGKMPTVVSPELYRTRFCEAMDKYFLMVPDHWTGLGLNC

panel of 468 kinases [10] = molecular target: T10, panel of 468 kinases (Homo sapiens, UniProt P07333); conditions: 1 μM, read-out: % control
T10 construct: purchased KINOMEscan (ScanMAX) service

CNc1nc(Nc2ccc(S(=O)(=O)N3CCC(N4CCOCC4)CC3)cc2OC)nc2[nH]cc(Cl)c12 [Compound 12, 5-chloro-N2-(2-methoxy-4-((4-morpholinopiperidin-1-yl)sulfonyl)phenyl)-N4-methyl-7H-pyrrolo[2,3-d]pyrimidine-2,4-diamine]
remaining binding at 1 µM (panel of 468 kinases [1]): 100% | remaining binding at 1 µM (panel of 468 kinases [2]): 75% | remaining binding at 1 µM (panel of 468 kinases [3]): 100% | remaining binding at 1 µM (panel of 468 kinases [4]): 100% | remaining binding at 1 µM (panel of 468 kinases [5]): 78% | remaining binding at 1 µM (panel of 468 kinases [6]): 100% | remaining binding at 1 µM (panel of 468 kinases [7]): 76% | remaining binding at 1 µM (panel of 468 kinases [8]): 78% | remaining binding at 1 µM (panel of 468 kinases [9]): 64% | remaining binding at 1 µM (panel of 468 kinases [10]; CSF1R-autoinhibited): 100% | remaining binding at 1 µM (panel of 468 kinases [10]; CSF1R): 100%

CNc1nc(Nc2ccc(C(=O)N3CCC(N4CCOCC4)CC3)c3c2OCO3)nc2[nH]cc(Cl)c12 [Compound 75, (7-((5-chloro-4-(methylamino)-7H-pyrrolo[2,3-d]pyrimidin-2-yl)amino)benzo[d][1,3]dioxol-4-yl)(4-morpholinopiperidin-1-yl)methanone]
remaining binding at 1 µM (panel of 468 kinases [1]): 100% | remaining binding at 1 µM (panel of 468 kinases [2]): 19% | remaining binding at 1 µM (panel of 468 kinases [3]): 100% | remaining binding at 1 µM (panel of 468 kinases [4]): 86% | remaining binding at 1 µM (panel of 468 kinases [5]): 47% | remaining binding at 1 µM (panel of 468 kinases [6]): 56% | remaining binding at 1 µM (panel of 468 kinases [7]): 32% | remaining binding at 1 µM (panel of 468 kinases [8]): 24% | remaining binding at 1 µM (panel of 468 kinases [9]): 72% | remaining binding at 1 µM (panel of 468 kinases [10]; CSF1R-autoinhibited): 99% | remaining binding at 1 µM (panel of 468 kinases [10]; CSF1R): 98%

CNc1nc(Nc2ccc(P3(=O)CCN(C4CCOCC4)CC3)cc2OC)nc2[nH]cc(Cl)c12 [Compound 77, 4-(4-((5-chloro-4-(methylamino)-7H-pyrrolo[2,3-d]pyrimidin-2-yl)amino)-3-methoxyphenyl)-1-(tetrahydro-2H-pyran-4-yl)-1,4-azaphosphinane 4-oxide]
remaining binding at 1 µM (panel of 468 kinases [1]): 100% | remaining binding at 1 µM (panel of 468 kinases [2]): 70% | remaining binding at 1 µM (panel of 468 kinases [3]): 91% | remaining binding at 1 µM (panel of 468 kinases [4]): 100% | remaining binding at 1 µM (panel of 468 kinases [5]): 97% | remaining binding at 1 µM (panel of 468 kinases [6]): 100% | remaining binding at 1 µM (panel of 468 kinases [7]): 78% | remaining binding at 1 µM (panel of 468 kinases [8]): 58% | remaining binding at 1 µM (panel of 468 kinases [9]): 70% | remaining binding at 1 µM (panel of 468 kinases [10]; CSF1R-autoinhibited): 100% | remaining binding at 1 µM (panel of 468 kinases [10]; CSF1R): 100%
